Data as given in patent US10131652B2, “Pyrimidinyloxy benzene derivatives as herbicides” (E. I. DU PONT DE NEMOURS AND COMPANY, priority 2014, dated 2018).
Like-named read-outs stand apart in the source and are kept apart here.

What was measured:
Assay type in all cases: in vivo
[1] = system: morningglory (Ipomoea spp.); assay: Test B pre-/postemergence plant response; conditions: for pest or weed control at 500 g/ha: 500 g ai/ha
Procedure, shortened: (§1)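 Visual injury scores on a 0–100 scale (100 = complete control) relative to untreated plants, taken about 10 days post-treatment in greenhouse. Treatments were a directed preemergence soil spray and a postemergence spray at one- to two-leaf stage, using surfactant-containing solvent formulation.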

[2] = system: velvetleaf (Abutilon theophrasti); assay: Test B pre-/postemergence plant response; conditions: for pest or weed control at 500 g/ha: 500 g ai/ha
Procedure, shortened: as §1

[3] = system: hairy beggarticks (Bidens pilosa); assay: Test F pre-/postemergence plant response; conditions: Bidens pilosa, scale 0 to 100, read-out: Plant response rating, Beggarticks
Procedure, shortened: (§2)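 Plant response is a visual score from 0, meaning no effect, to 100, meaning complete control, assigned by comparison with untreated plants. Ratings were made 14 to 21 days after preemergence application to seeded silt loam or postemergence application to plants at the 1- to 4-leaf stage.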

[4] = system: goosegrass (Eleusine indica); assay: Test F pre-/postemergence plant response; conditions: Eleusine indica, pre-emergence, scale 0 to 100, read-out: Plant response rating, Goosegrass
Procedure, shortened: as §2

[5] = system: nightshade (eastern black nightshade, Solanum ptycanthum); assay: Test F pre-/postemergence plant response; conditions: Solanum, pre-emergence, scale 0 to 100, read-out: Plant response rating, Nightshade
Procedure, shortened: as §2

[6] = system: corn (Zea mays); assay: Test F pre-/postemergence plant response; conditions: Zea mays, scale 0 to 100
Procedure, shortened: as §2

[7] = system: velvetleaf (Abutilon theophrasti); assay: Test F pre-/postemergence plant response; conditions: Abutilon theophrasti, pre-emergence, scale 0 to 100, read-out: Plant response rating, Velvetleaf
Procedure, shortened: as §2

[8] = system: sandbur (southern sandbur, Cenchrus echinatus); assay: Test F pre-/postemergence plant response; conditions: Cenchrus echinatus, scale 0 to 100, read-out: Plant response rating, Sandbur
Procedure, shortened: as §2

[9] = system: Brazilian crabgrass (Digitaria horizontalis); assay: Test F pre-/postemergence plant response; conditions: Digitaria horizontalis, scale 0 to 100, read-out: Plant response rating, Crabgrass, Brazil
Procedure, shortened: as §2

[10] = system: fall panicum (Panicum dichotomiflorum); assay: Test F pre-/postemergence plant response; conditions: Panicum dichotomiflorum, scale 0 to 100, read-out: Plant response rating, Panicum, Fall
Procedure, shortened: as §2

[11] = system: palmer pigweed (Amaranthus palmeri); assay: Test F pre-/postemergence plant response; conditions: Amaranthus palmeri, scale 0 to 100, read-out: Plant response rating, Pigweed, Palmer
Procedure, shortened: as §2

[12] = system: arrowleaf sida (Sida rhombifolia); assay: Test F pre-/postemergence plant response; conditions: Sida rhombifolia, scale 0 to 100, read-out: Plant response rating, Arrowleaf Sida
Procedure, shortened: as §2

[13] = Preemergence, 125 g ai/ha, 0 to 100 scale (0 no effect, 100 complete control)
[14] = post-emergence, 8 g ai/ha Postemergence
[15] = post-emergence, 16 g ai/ha Postemergence
[16] = post-emergence, 31 g ai/ha Postemergence
[17] = post-emergence, 62 g ai/ha Postemergence
[18] = post-emergence, 125 g ai/ha Postemergence
[19] = pre-emergence, 8 g ai/ha Preemergence
[20] = pre-emergence, 16 g ai/ha Preemergence
[21] = pre-emergence, 31 g ai/ha Preemergence
[22] = pre-emergence, 62 g ai/ha Preemergence
[23] = pre-emergence, 125 g ai/ha Preemergence

FC(F)(F)c1cc(-c2ccccc2Oc2ncc(Cl)cn2)no1 [Compound 200, 5-chloro-2-[2-[5-(trifluoromethyl)-3-isoxazolyl]phenoxy]pyrimidine]
pest or weed control at 125 g/ha ([1]; Ipomoea, post-emergence, 240 h, 125 g ai/ha, postemergence, 0 to 100 scale, 0 no effect, 100 complete control, read-out: Plant response rating, Morningglory): 90% | pest or weed control at 500 g/ha ([1]; Ipomoea, post-emergence, 240 h, postemergence, 0 to 100 scale, 0 no effect, 100 complete control, read-out: Plant response rating, Morningglory): 100% | pest or weed control at 500 g/ha ([1]; Ipomoea, pre-emergence, 240 h, Preemergence, 0 to 100 scale where 0 is no effect and 100 is complete control, read-out: Plant response rating, Morningglory): 100% | Morningglory plant response rating [1, 13]: 20 | pest or weed control at 125 g/ha ([2]; Abutilon theophrasti, post-emergence, 240 h, 125 g ai/ha, postemergence, 0 to 100 scale, 0 no effect, 100 complete control, read-out: Plant response rating, Velvetleaf): 100% | pest or weed control at 500 g/ha ([2]; Abutilon theophrasti, post-emergence, 240 h, postemergence, 0 to 100 scale, 0 no effect, 100 complete control, read-out: Plant response rating, Velvetleaf): 100% | pest or weed control at 500 g/ha ([2]; Abutilon theophrasti, pre-emergence, 240 h, Preemergence, 0 to 100 scale where 0 is no effect and 100 is complete control, read-out: Plant response rating, Velvetleaf): 90% | Velvetleaf plant response rating [2, 13]: 80 | pest or weed control at 8 g/ha [3, 14]: 0% | pest or weed control at 16 g/ha [3, 15]: 0% | pest or weed control at 31 g/ha [3, 16]: 5% | pest or weed control at 62 g/ha [3, 17]: 10% | pest or weed control at 125 g/ha [3, 18]: 10% | pest or weed control at 8 g/ha [3, 19]: 0% | pest or weed control at 16 g/ha [3, 20]: 0% | pest or weed control at 31 g/ha [3, 21]: 0% | pest or weed control at 62 g/ha [3, 22]: 0% | pest or weed control at 125 g/ha [3, 23]: 0% | pest or weed control at 8 g/ha ([4]; 8 g ai/ha Preemergence): 10% | pest or weed control at 16 g/ha ([4]; 16 g ai/ha Preemergence): 70% | pest or weed control at 31 g/ha ([4]; 31 g ai/ha Preemergence): 80% | pest or weed control at 125 g/ha ([4]; 125 g ai/ha Preemergence): 98% | pest or weed control at 62 g/ha ([4]; Preemergence): 95% | pest or weed control at 8 g/ha ([5]; 8 g ai/ha Preemergence): 0% | pest or weed control at 16 g/ha ([5]; 16 g ai/ha Preemergence): 35% | pest or weed control at 31 g/ha ([5]; 31 g ai/ha Preemergence): 60% | pest or weed control at 125 g/ha ([5]; 125 g ai/ha Preemergence): 98% | pest or weed control at 62 g/ha ([5]; Preemergence): 98% | Corn plant response rating (crop injury, 0 = no effect, 100 = complete kill) at 8 g/ha [6, 14]: 0% | Corn plant response rating (crop injury, 0 = no effect, 100 = complete kill) at 16 g/ha [6, 15]: 0% | Corn plant response rating (crop injury, 0 = no effect, 100 = complete kill) at 31 g/ha [6, 16]: 10% | Corn plant response rating (crop injury, 0 = no effect, 100 = complete kill) at 62 g/ha [6, 17]: 20% | Corn plant response rating (crop injury, 0 = no effect, 100 = complete kill) at 125 g/ha [6, 18]: 25% | Corn plant response rating (crop injury, 0 = no effect, 100 = complete kill) at 8 g/ha [6, 19]: 0% | Corn plant response rating (crop injury, 0 = no effect, 100 = complete kill) at 16 g/ha [6, 20]: 0% | Corn plant response rating (crop injury, 0 = no effect, 100 = complete kill) at 31 g/ha [6, 21]: 0% | Corn plant response rating (crop injury, 0 = no effect, 100 = complete kill) at 62 g/ha [6, 22]: 0% | Corn plant response rating (crop injury, 0 = no effect, 100 = complete kill) at 125 g/ha [6, 23]: 0% | pest or weed control at 8 g/ha ([7]; 8 g ai/ha Preemergence): 0% | pest or weed control at 16 g/ha ([7]; 16 g ai/ha Preemergence): 25% | pest or weed control at 31 g/ha ([7]; 31 g ai/ha Preemergence): 80% | pest or weed control at 125 g/ha ([7]; 125 g ai/ha Preemergence): 100% | pest or weed control at 62 g/ha ([7]; Preemergence): 100% | pest or weed control at 8 g/ha [8, 14]: 0% | pest or weed control at 16 g/ha [8, 15]: 0% | pest or weed control at 31 g/ha [8, 16]: 0% | pest or weed control at 62 g/ha [8, 17]: 0% | pest or weed control at 125 g/ha [8, 18]: 5% | pest or weed control at 8 g/ha [8, 19]: 0% | pest or weed control at 16 g/ha [8, 20]: 5% | pest or weed control at 31 g/ha [8, 21]: 5% | pest or weed control at 125 g/ha [8, 23]: 75% | pest or weed control at 62 g/ha ([8]; pre-emergence, Preemergence): 40% | pest or weed control at 8 g/ha [9, 14]: 10% | pest or weed control at 16 g/ha [9, 15]: 10% | pest or weed control at 31 g/ha [9, 16]: 15% | pest or weed control at 62 g/ha [9, 17]: 20% | pest or weed control at 125 g/ha [9, 18]: 20% | pest or weed control at 8 g/ha [9, 19]: 0% | pest or weed control at 16 g/ha [9, 20]: 90% | pest or weed control at 31 g/ha [9, 21]: 98% | pest or weed control at 62 g/ha [9, 22]: 100% | pest or weed control at 125 g/ha [9, 23]: 100% | pest or weed control at 8 g/ha [10, 14]: 5% | pest or weed control at 16 g/ha [10, 15]: 5% | pest or weed control at 31 g/ha [10, 16]: 5% | pest or weed control at 62 g/ha [10, 17]: 5% | pest or weed control at 125 g/ha [10, 18]: 15% | pest or weed control at 8 g/ha [10, 19]: 0% | pest or weed control at 16 g/ha [10, 20]: 70% | pest or weed control at 31 g/ha [10, 21]: 35% | pest or weed control at 125 g/ha [10, 23]: 100% | pest or weed control at 62 g/ha ([10]; pre-emergence, Preemergence): 98% | pest or weed control at 8 g/ha [11, 14]: 85% | pest or weed control at 16 g/ha [11, 15]: 95% | pest or weed control at 31 g/ha [11, 16]: 98% | pest or weed control at 62 g/ha [11, 17]: 100% | pest or weed control at 125 g/ha [11, 18]: 100% | pest or weed control at 8 g/ha [11, 19]: 0% | pest or weed control at 16 g/ha [11, 20]: 85% | pest or weed control at 31 g/ha [11, 21]: 100% | pest or weed control at 125 g/ha [11, 23]: 100% | pest or weed control at 62 g/ha ([11]; pre-emergence, Preemergence): 100% | pest or weed control at 8 g/ha [12, 14]: 65% | pest or weed control at 16 g/ha [12, 15]: 75% | pest or weed control at 31 g/ha [12, 16]: 85% | pest or weed control at 62 g/ha [12, 17]: 95% | pest or weed control at 125 g/ha [12, 18]: 95% | pest or weed control at 8 g/ha [12, 19]: 0% | pest or weed control at 16 g/ha [12, 20]: 65% | pest or weed control at 31 g/ha [12, 21]: 100% | pest or weed control at 62 g/ha [12, 22]: 100% | pest or weed control at 125 g/ha [12, 23]: 100%
